Laboratory results: paper PMC8518114, “Safety, tolerability and pharmacokinetics of emodepside, a potential novel treatment for onchocerciasis (river blindness), in healthy male subjects” (British Journal of Clinical Pharmacology, 2021)
Read-outs that look alike come from different tables or passages of the source.

Experiment: Plasma pharmacokinetics of emodepside, multiple ascending dose (MAD) study
Format: in vivo, human
Details: for AUC 0–24 /D / C max /D / AUC last /D / t ½ 0–24 (dominant half-life) / AUC 0–24 / Cmax: mean (CV%); for t ½ 0–24 (dominant half-life): Day 10, terminal slope of log concentration–time (0–24 hr) curve; for Cmax/Ctrough ratio: after the last dose on Day 10; for MRT: Day 1, mean (CV%); for AUC 0–24 / Cmax: HPLC-MS/MS; for CL/F: read-out: CL ss /F (converted); for Vd/F: read-out: V z /F; for half-life: read-out: Terminal t ½ (converted)
Description: Emodepside and placebo were supplied as a LSF and a standard immediate‐release (IR) tablet. The LSF was a 0.1% (w/v) solution containing 1 mg emodepside/mL. Conventional IR tablets containing emodepside in crystalline form were supplied in 2 dosage strengths, 5 and 20 mg, for the single ascending dose (SAD) study.
Blood samples (5 mL) were collected by venepuncture or via a cannula into EDTA tubes and immediately placed on ice. Samples were centrifuged at 1500 g for 10 minutes at 4°C. The plasma was aliquoted into 2 polypropylene tubes, which were stored at −20°C. Blood samples for PK analysis were taken at the following time points: • SAD: predose and 0.5, 1, 1.5, 2, 2.5, 3, 4, 5, 6, 8, 12, 24, 36, 48, 72, 96, 120, 144 and 168 hours, and 21 days postdose (cohort 1–9) or predose and 0.5, 1, 3, 6, 8, 12, 24, 36, 48, 72, 96, 120, 144 and 168 hours, and 10, 14, 18 and 21 days postdose (cohort 10). • Multiple ascending dose (MAD), as below: • on Day 1: predose and at 0.25, 0.5, 1, 1.5, 2, 2.5, 3, 4, 6, 8, 12 and 15 hours postdose • on Days 2–9: before the morning dose • on Day 10: before and at 0.25, 0.5, 1, 1.5, 2, 2.5, 3, 4, 6, 8, 12 and 15 hours • on Days 11, 12, 13, 14, 15, 18, 21, 24 and 30.
Emodepside plasma concentrations were determined by a validated high performance liquid chromatography–tandem mass spectrometry assay, using a Alltima C18 5 μm 150 mm x 2.1 mm column and an Applied Biosystems API4000 Turbo Ion Spray detector using positive ion mode. Analyst version 1.3.2 or 1.6.3 software, obtained from AB Sciex UK Ltd, Warrington, UK was used for chromatogram data analysis and quantitative calculations. Deuterated emodepside‐D16 was used as the internal standard. The lower limit of quantitation for emodepside in plasma was 1 ng/mL. Values below this limit were not used to calculate the PK parameters, except values that were below the limit of quantification before Cmax, which were set to zero.
The highest observed plasma concentration (Cmax) was determined directly from concentration–time data, as was the time to reach maximum plasma concentration (tmax). The area under the plasma concentration–time curve from time zero (predose) to the time of last quantifiable concentration (AUC0‐last) was calculated using the linear‐log trapezoidal rule. Elimination half‐life (t1/2) was calculated by the equation ln2/λz.
Statistical analyses were performed using SAS version 9.3 (Cary, NC, USA). Demographic data and baseline characteristics were listed and summarised. […] PK parameters were derived from plasma concentration vs. time data using a noncompartmental analysis in Phoenix WinNonlin version 7 (Certara Inc., Princeton, NJ, USA). Plasma concentration vs. time data and PK parameters were listed, and summarised by treatment, using descriptive statistics. Mean concentrations were calculated only if at least ⅔ of the individual concentrations were above the lower limit of quantification. […] Planned sampling times were used to summarise plasma‐concentration data; actual sampling times were used in the derivation of PK parameters.

[1] = 5 mg OD LSF fasting, Day 1, dose-normalised
[2] = 5 mg OD LSF fasting, Day 10, dose-normalised
[3] = 10 mg BID LSF fasting, Day 1, dose-normalised
[4] = 10 mg BID LSF fasting, Day 10, dose-normalised
[5] = 10 mg OD LSF fasting, Day 1, dose-normalised
[6] = 10 mg OD LSF fasting, Day 10, dose-normalised
[7] = human, plasma, po, 5 mg, 5 mg OD LSF fasting, Day 1, plasma
[8] = human, plasma, po, 5 mg, 5 mg OD LSF fasting, Day 10, mean (CV%)
[9] = human, plasma, po, 5 mg, 5 mg OD LSF fasting, Day 10, plasma
[10] = human, plasma, po, 10 mg, 10 mg BID LSF fasting, Day 1, plasma
[11] = human, plasma, po, 10 mg, 10 mg BID LSF fasting, Day 10, mean (CV%)
[12] = human, plasma, po, 10 mg, 10 mg BID LSF fasting, Day 10, plasma
[13] = human, plasma, po, 10 mg, 10 mg OD LSF fasting, Day 1, plasma
[14] = human, plasma, po, 10 mg, 10 mg OD LSF fasting, Day 10, mean (CV%)
[15] = human, plasma, po, 10 mg, 10 mg OD LSF fasting, Day 10, plasma

With CC(C)C[C@H]1C(=O)O[C@H](Cc2ccc(N3CCOCC3)cc2)C(=O)N(C)[C@@H](CC(C)C)C(=O)O[C@H](C)C(=O)N(C)[C@@H](CC(C)C)C(=O)O[C@H](Cc2ccc(N3CCOCC3)cc2)C(=O)N(C)[C@@H](CC(C)C)C(=O)O[C@H](C)C(=O)N1C [emodepside] the “AUC 0–24 /D” value [1] was 115 (19.7) [h.ng/mL]/mg, the “C max /D” value [1] was 18.8 (17.8) [ng/mL]/mg and the Tmax (5 mg OD LSF fasting, Day 1, median (range)) was 1.00 (1.00–1.07) h. For the same compound, the “AUC 0–24 /D” value [2] was 338 (31.3) [h.ng/mL]/mg, the “AUC last /D” value [2] was 3872 (29.9) [h.ng/mL]/mg and the “C max /D” value [2] was 29.9 (17.9) [ng/mL]/mg. For the same compound, the λ z (5 mg OD LSF fasting, Day 10, mean (CV%)) was 0.00166 (42.6) 1/h, the “Terminal t ½” value (5 mg OD LSF fasting, Day 10, mean (CV%), geometric mean) was 419 (42.6) h and the Tmax (5 mg OD LSF fasting, Day 10, median (range)) was 1.00 (1.00–1.50) h. The “t ½ 0–24 (dominant half-life)” value (5 mg OD LSF fasting) was 26.9 (52.4) h, the “AUC 0–24 /D” value [3] was 71.4 (26.5) [h.ng/mL]/mg and the “C max /D” value [3] was 16.0 (20.4) [ng/mL]/mg. For the same compound, the Tmax (10 mg BID LSF fasting, Day 1, median (range)) was 1.00 (1.00–1.58) h, the “AUC 0–24 /D” value [4] was 490 (35.8) [h.ng/mL]/mg and the “AUC last /D” value [4] was 5955 (29.1) [h.ng/mL]/mg. For the same compound, the “C max /D” value [4] was 34.9 (27.1) [ng/mL]/mg, the λ z (10 mg BID LSF fasting, Day 10, mean (CV%)) was 0.00137 (56.9) 1/h and the “t ½ 0–24 (dominant half-life)” value (10 mg BID LSF fasting) was 33.2 (55.0) h. For the same compound, the Cmax/Ctrough ratio (10 mg BID LSF) was 1.9, the “AUC 0–24 /D” value [5] was 113 (32.7) [h.ng/mL]/mg and the “C max /D” value [5] was 18.6 (21.3) [ng/mL]/mg. The “AUC 0–24 /D” value [6] was 349 (44.2) [h.ng/mL]/mg, the “AUC last /D” value [6] was 4065 (43.5) [h.ng/mL]/mg and the “C max /D” value [6] was 28.7 (39.7) [ng/mL]/mg. For the same compound, the λ z (10 mg OD LSF fasting, Day 10, mean (CV%)) was 0.00154 (30.6) 1/h, the Tmax (10 mg OD LSF fasting, Day 10, median (range)) was 1.25 (1.00–2.00) h and the “t ½ 0–24 (dominant half-life)” value (10 mg OD LSF fasting) was 18.4 (30.0) h. The Cmax/Ctrough ratio (10 mg OD LSF) was 3.0, the “Emodepside levels at the final sampling timepoint” value (507 hours after the last morning dose, LLOQ 1 ng/mL) was “still quantifiable in all subjects” and the “Geometric mean Cmax on Day 10, 10 mg BID group vs 10 mg OD group” value (LSF) was 1.2 fold. The MRT (human, plasma, po, 5 mg, 5 mg OD LSF fasting) was 7.28 h, the AUC 0–24 [7] was 574 ng·h/mL and the Cmax [7] was 93.8 ng/mL. It also gave a CL/F [8] of 49.3 mL/min, a Vd/F [8] of 1790 L and an AUC 0–24 [9] of 1690 ng·h/mL. It also gave a Cmax [9] of 149 ng/mL, an MRT (human, plasma, po, 10 mg, 10 mg BID LSF fasting) of 10.8 h and an AUC 0–24 [10] of 1430 ng·h/mL. It also gave a Cmax [10] of 160 ng/mL, a half-life (human, plasma, po, 10 mg, 10 mg BID LSF fasting, Day 10, mean (CV%), geometric mean) of 508 h and a CL/F [11] of 59.3 mL/min. The Vd/F [11] was 2610 L, the Tmax (human, plasma, po, 10 mg, 10 mg BID LSF fasting, Day 10, median (range), read-out: t max) was 1.5 h and the AUC 0–24 [12] was 4900 ng·h/mL. For the same compound, the Cmax [12] was 349 ng/mL, the MRT (human, plasma, po, 10 mg, 10 mg OD LSF fasting) was 7 h and the Tmax (human, plasma, po, 10 mg, 10 mg OD LSF fasting, Day 1, median (range), read-out: t max) was 1.25 h. It also gave an AUC 0–24 [13] of 1140 ng·h/mL, a Cmax [13] of 186 ng/mL and a half-life (human, plasma, po, 10 mg, 10 mg OD LSF fasting, Day 10, mean (CV%), geometric mean) of 450 h. It also gave a CL/F [14] of 47.8 mL/min, a Vd/F [14] of 1860 L and an AUC 0–24 [15] of 3490 ng·h/mL. For the same compound, the Cmax [15] was 287 ng/mL.
